Laboratory results taken from patent US20230141101A1, “PDE4 INHIBITOR COMPOUND AND MEDICAL USE THEREOF” (Suzhou Longbotai Pharmaceuticals Co., Ltd., priority 2020, published 2023).

Key:
Format in all cases: biochemical
Conditions in all cases: 20 nM
PDE4B1 = molecular target: T1, PDE4B1 (Homo sapiens, UniProt Q07343); assay: PDE4 inhibitory activity assay (FAM-cAMP enzymatic reaction), PDE4B1
T1 construct: purchased BPS 60041
Summary of the method: (§1)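 Each isoform is incubated with test compound for 15 min at room temperature before FAM-cAMP substrate starts a 30-min reaction.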

PDE4D2 = PDE4D2 (Homo sapiens, UniProt Q08499); assay: PDE4 inhibitory activity assay (FAM-cAMP enzymatic reaction), PDE4D2
Summary of the method: as §1

PDE4A1A = molecular target: T2, PDE4A1A (Homo sapiens, UniProt P27815); assay: PDE4 inhibitory activity assay (FAM-cAMP enzymatic reaction), PDE4A1A
T2 construct: purchased BPS 60040
Summary of the method: as §1

Sequence of PDE4D2 (Q08499 303-809): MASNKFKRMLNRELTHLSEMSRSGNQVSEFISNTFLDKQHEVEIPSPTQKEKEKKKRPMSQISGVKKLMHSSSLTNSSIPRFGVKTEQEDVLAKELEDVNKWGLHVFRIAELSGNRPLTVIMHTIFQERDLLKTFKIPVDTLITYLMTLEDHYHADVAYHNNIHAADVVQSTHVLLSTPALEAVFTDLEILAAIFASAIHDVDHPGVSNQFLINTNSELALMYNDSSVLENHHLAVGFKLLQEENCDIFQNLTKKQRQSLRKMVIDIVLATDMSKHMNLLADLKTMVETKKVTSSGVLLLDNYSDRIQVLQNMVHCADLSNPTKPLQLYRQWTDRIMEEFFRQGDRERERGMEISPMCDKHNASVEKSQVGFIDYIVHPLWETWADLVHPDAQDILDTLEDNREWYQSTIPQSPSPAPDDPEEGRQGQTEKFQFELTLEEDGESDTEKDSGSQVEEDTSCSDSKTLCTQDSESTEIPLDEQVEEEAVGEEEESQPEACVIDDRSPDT
T2 sequence (P27815 1-647 isoform P27815-4): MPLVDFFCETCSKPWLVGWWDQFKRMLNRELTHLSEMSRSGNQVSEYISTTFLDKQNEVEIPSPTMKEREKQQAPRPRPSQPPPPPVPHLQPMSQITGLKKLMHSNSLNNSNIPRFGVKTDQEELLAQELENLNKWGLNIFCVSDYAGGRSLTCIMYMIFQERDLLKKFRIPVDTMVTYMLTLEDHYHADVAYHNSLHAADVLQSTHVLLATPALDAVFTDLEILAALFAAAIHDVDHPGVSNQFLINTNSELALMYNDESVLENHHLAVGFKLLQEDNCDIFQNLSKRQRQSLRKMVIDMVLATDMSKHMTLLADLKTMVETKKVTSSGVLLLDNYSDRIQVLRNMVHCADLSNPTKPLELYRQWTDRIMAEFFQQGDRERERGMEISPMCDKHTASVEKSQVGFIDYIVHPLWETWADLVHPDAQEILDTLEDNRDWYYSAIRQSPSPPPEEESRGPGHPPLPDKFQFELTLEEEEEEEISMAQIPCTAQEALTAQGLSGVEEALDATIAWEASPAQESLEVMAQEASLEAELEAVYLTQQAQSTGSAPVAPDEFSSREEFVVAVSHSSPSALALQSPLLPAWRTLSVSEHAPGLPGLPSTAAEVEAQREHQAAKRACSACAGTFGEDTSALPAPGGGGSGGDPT
T1 sequence (Q07343 whole entry): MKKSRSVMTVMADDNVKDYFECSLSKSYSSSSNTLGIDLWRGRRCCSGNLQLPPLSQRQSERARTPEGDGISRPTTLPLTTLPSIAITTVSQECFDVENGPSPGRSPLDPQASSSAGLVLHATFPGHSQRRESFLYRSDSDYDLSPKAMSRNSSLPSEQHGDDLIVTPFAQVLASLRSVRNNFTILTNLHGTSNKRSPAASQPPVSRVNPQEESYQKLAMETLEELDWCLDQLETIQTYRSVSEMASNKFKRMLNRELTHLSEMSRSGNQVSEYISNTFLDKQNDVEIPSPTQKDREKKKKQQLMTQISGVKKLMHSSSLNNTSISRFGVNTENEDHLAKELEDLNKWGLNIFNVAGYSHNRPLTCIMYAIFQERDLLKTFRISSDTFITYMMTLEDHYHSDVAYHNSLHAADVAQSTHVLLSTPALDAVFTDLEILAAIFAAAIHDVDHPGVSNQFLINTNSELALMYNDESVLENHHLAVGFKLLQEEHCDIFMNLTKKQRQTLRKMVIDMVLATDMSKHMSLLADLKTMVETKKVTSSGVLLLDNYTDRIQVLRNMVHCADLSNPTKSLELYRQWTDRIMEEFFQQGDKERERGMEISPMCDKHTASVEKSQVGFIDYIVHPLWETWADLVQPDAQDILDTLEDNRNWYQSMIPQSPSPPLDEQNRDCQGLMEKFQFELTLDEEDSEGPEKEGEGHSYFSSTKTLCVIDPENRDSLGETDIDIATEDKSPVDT

SMILES | PDE4 B1 inhibitory effect at 20 nM (PDE4B1) | PDE4 D2 inhibitory effect at 20 nM (PDE4D2) | PDE4 A1 inhibitory effect at 20 nM (PDE4A1A)
CCOc1nc([C@@H](CS(C)(=O)=O)n2c(=O)n(CCOC)c3cc(-c4ccccn4)cnc32)ccc1OC [Ex. 125, (S)-3-(1-(6-ethoxy-5-methoxypyridin-2-yl)-2-(methylsulfonyl)ethyl)-1-(2-methoxyethyl)-6-(pyridin-2-yl)-1H-imidazo[4,5-b]pyridin-2(3H)-one] | + | + | +
CCOc1nc([C@@H](CS(C)(=O)=O)n2c(=O)[nH]c3cc(-c4c(C)cccc4C)cnc32)ccc1OC [Ex. 105, (S)-6-(2,6-dimethylphenyl)-3-(1-(6-ethoxy-5-methoxypyridin-2-yl)-2-(methylsulfonyl)ethyl)-1H-imidazo[4,5-b]pyridin-2(3H)-one] | + | + | +
CCOc1nc([C@@H](CS(C)(=O)=O)n2c(=O)[nH]c3c(Cc4ccccc4F)cccc32)ccc1OC [Ex. 207, (S)-1-(1-(6-ethoxy-5-methoxypyridin-2-yl)-2-(methylsulfonyl)ethyl)-4-(2-fluorobenzyl)-1H-benzo[d]imidazol-2(3H)-one] | + | + | +
CCOc1nc([C@@H](CS(C)(=O)=O)n2c(=O)[nH]c3c(C)c(Br)cnc32)ccc1OC [Ex. 73, (S)-3-(1-(6-ethoxy-5-methoxypyridin-2-yl)-2-(methylsulfonyl)ethyl)-6-bromo-7-methyl-1H-imidazo[4,5-b]pyridin-2(3H)-one] | + | + | +
CCOc1nc([C@@H](CS(C)(=O)=O)n2c(=O)[nH]c3cc(-c4ccc(F)cc4F)ccc32)ccc1OC [Ex. 156, (S)-5-(2,4-difluorophenyl)-1-(1-(6-ethoxy-5-methoxypyridin-2-yl)-2-(methylsulfonyl)ethyl)-1H-benzo[d]imidazol-2(3H)-one] | + | + | +
CCOc1nc([C@@H](CS(C)(=O)=O)n2c(=O)[nH]c3c(C)c(-c4ccccc4C(C)C)ccc32)ccc1OC [Ex. 149, (S)-1-(1-(6-ethoxy-5-methoxypyridin-2-yl)-2-(methylsulfonyl)ethyl)-5-(2-isopropylphenyl)-4-methyl-1H-benzo[d]imidazol-2(3H)-one] | + | + | +
CCOc1nc([C@@H](CS(C)(=O)=O)n2c(=O)n(C)c3cc(-c4ccc(F)cc4F)cnc32)ccc1OC [Ex. 95, (S)-6-(2,4-difluorophenyl)-3-(1-(6-ethoxy-5-methoxypyridin-2-yl)-2-(methylsulfonyl)ethyl)-1-methyl-1H-imidazo[4,5-b]pyridin-2(3H)-one] | + | + | +
CCOc1nc([C@@H](CS(C)(=O)=O)n2c(=O)n(C)c3cc(-c4ccc(C)cc4C)ccc32)ccc1OC [Ex. 163, (S)-5-(2,4-dimethylphenyl)-1-(1-(6-ethoxy-5-methoxypyridin-2-yl)-2-(methylsulfonyl)ethyl)-3-methyl-1H-benzo[d]imidazol-2(3H)-one] | + | + | +
CCOc1nc([C@@H](CS(C)(=O)=O)N2C(=O)c3csc(NC(=O)CC)c3C2=O)ccc1OC [Ex. 226, (S)—N-(5-(1-(6-ethoxy-5-methoxypyridin-2-yl)-2-(methylsulfonyl)ethyl)-4,6-dioxo-5,6-dihydro-4H-thieno[3,4-c]pyrrol-1-yl)propionamide] | + | + | +
CCOc1nc([C@H](CS(C)(=O)=O)n2c(=O)n(CC(F)(F)F)c3c(C)c(-c4ccccc4F)cnc32)ccc1OC [Ex. 52, (R)-3-(1-(6-ethoxy-5-methoxypyridin-2-yl)-2-(methylsulfonyl)ethyl)-6-(2-fluorophenyl)-7-methyl-1-(2,2,2-trifluoroethyl)-1H-imidazo[4,5-b]pyridin-2(3H)-one] | − | − | −
CCOc1nc([C@@H](CS(C)(=O)=O)n2c(=O)[nH]c3cc(-c4c(F)cccc4F)ccc32)ccc1OC [Ex. 154, (S)-5-(2,6-difluorophenyl)-1-(1-(6-ethoxy-5-methoxypyridin-2-yl)-2-(methylsulfonyl)ethyl)-1H-benzo[d]imidazol-2(3H)-one] | + | + | +
CCOc1nc([C@@H](CS(C)(=O)=O)n2c(=O)n(C)c3c(C)c(-c4ccccn4)cnc32)ccc1OC [Ex. 19, (S)-3-(1-(6-ethoxy-5-methoxypyridin-2-yl)-2-(methylsulfonyl)ethyl)-1,7-dimethyl-6-(pyridin-2-yl)-1H-imidazo[4,5-b]pyridin-2(3H)-one] | + | + | +
CCOc1nc([C@@H](CS(C)(=O)=O)n2c(=O)[nH]c3cc(-c4ccc(F)cc4OC)cnc32)ccc1OC [Ex. 119, (S)-6-(4-fluoro-2-methoxyphenyl)-3-(1-(6-ethoxy-5-methoxypyridin-2-yl)-2-(methylsulfonyl)ethyl)-1H-imidazo[4,5-b]pyridin-2(3H)-one] | + | + | +
CCOc1nc([C@@H](CS(C)(=O)=O)n2c(=O)[nH]c3cc(-c4ccccc4C(F)(F)F)ccc32)ccc1OC [Ex. 146, (S)-1-(1-(6-ethoxy-5-methoxypyridin-2-yl)-2-(methylsulfonyl)ethyl)-5-(2-(trifluoromethyl)phenyl)-1H-benzo[d]imidazol-2(3H)-one] | + | + | +
CCOc1nc([C@@H](CS(C)(=O)=O)n2c(=O)n(C)c3cc(-c4c(F)cccc4F)ccc32)ccc1OC [Ex. 155, (S)-5-(2,6-difluorophenyl)-1-(1-(6-ethoxy-5-methoxypyridin-2-yl)-2-(methylsulfonyl)ethyl)-3-methyl-1H-benzo[d]imidazol-2(3H)-one] | + | + | +
